Experiments:
Assay type in all cases: cell-based
[1] = system: Staphylococcus aureus NCTC8325; assay: Minimal inhibitory concentration (MIC) assay; settings: Staphylococcus aureus, NCTC8325; inhibition of bacterial growth of S. aureus NCTC 8325; obtained by MIC assay
Experimental: Minimum inhibitory concentrations (MICs) represent the lowest concentration of sample that will inhibit the visible growth of a microorganism after overnight incubation, and was obtained by a 96 well plate-based assay (Thermo Scientific) with serial dilutions of the probes tested. […] Bacteria were diluted in fresh medium to a concentration of 10^5 CFU/mL. In the case of all other bacteria species tested, fresh media was inoculated 1/10000 and directly used for testing. Diluted bacterial cultures (99 μL) were added to various concentrations of probe (1 μL of the respective stock in DMSO). A growth control containing DMSO (1 μL) and cultivated medium (99 μL) and a sterile control containing fresh medium (100 μL) were run on every 96 well plate in triplicates. After incubation at 37° C. with gentle shaking (200 rpm) for 24 h, the dilution series was analysed for microbial growth, usually indicated by turbidity and/or a pellet of bacteria at the bottom of the well. The lowest concentration in the dilution series at which no growth of bacteria could be observed by eye was defined as the minimum inhibitory concentration (MIC) of the probe. MIC values were determined by three independent experiments with at least triplicate runs for each concentration. […] Both compounds were tested against various bacterial strains. […] The assay was performed as described above.

[2] = system: S. aureus NCTC 8325 persister cells; assay: Persister cell assay II; settings: TSB, with or without 30 μg/mL oxacillin; 20 h or 70 h; 2.4 μM PK/X17-1-150 or PK/X17-4-011, 24 μM sorafenib or PK/X17-2-011, 5 μg/mL ciprofloxacin
Experimental: Persister cell assay II. Tryptic soy broth (50 mL in 250 mL culture flasks) was inoculated 1:1000 with overnight cultures of NCTC 8325 and grown at 37° C. and 200 rpm until an OD600 of 4 was reached or overnight (ON). Serial dilution were prepared and plated to determine the cell numbers in the inoculum. […]. […] After 20 h (A) or 70 h (B) of treatment, cells were harvested, washed two times with PBS (10000×g, 3 min), serially diluted and plated on agar plates for determination of surviving cell numbers.

[3] = system: S. aureus NCTC 8325 persister cells; assay: Persister cell assay I; settings: gentamicin-selected persisters in PBS; 70 h; 2.4 μM PK/X17-1-150, 24 μM sorafenib, 5 μg/mL ciprofloxacin

IC50 [1] [nM]	Compound	viable persister cells (CFU/mL) vs DMSO control [2]	viable persister cells (CFU/mL) vs DMSO control [3]
30000	CNC(=O)c1ccc(NC(=O)Nc2ccc(Cl)c(C(F)(F)F)c2)cc1 [Example 3, 4-(3-(4-Chloro-3-(trifluoromethyl)phenyl)ureido)-N-methylbenzamide]		
3000	COc1ccc(NC(=O)Nc2ccc(Cl)c(C(F)(F)F)c2)cc1 [Example 5, 1-(4-Chloro-3-(trifluoromethyl)phenyl)-3-(4-methoxyphenyl)urea]		
10000	O=C(Nc1ccc2c(c1)OCO2)Nc1ccc(Cl)c(C(F)(F)F)c1 [Example 6, 1-(Benzo[d][1,3]dioxol-5-yl)-3-(4-chloro-3-(trifluoromethyl)phenyl)urea]		
30000	COc1ccc(NC(=O)Nc2ccc(Cl)c(C(F)(F)F)c2)cc1OC [Example 7, 1-(4-Chloro-3-(trifluoromethyl)phenyl)-3-(3,4-dimethoxyphenyl)urea]		
1000	O=C(Nc1ccc(Cl)c(C(F)(F)F)c1)Nc1cccc2c1OC(F)(F)O2 [Example 9, 1-(4-Chloro-3-(trifluoromethyl)phenyl)-3-(2,2-difluorobenzo[d][1,3]dioxol-4-yl)urea]		
1000	FC1(F)Oc2ccc(NC(=S)Nc3ccc(Cl)c(C(F)(F)F)c3)cc2O1 [Example 10, 1-(4-Chloro-3-(trifluoromethyl)phenyl)-3-(2,2-difluorobenzo[d][1,3]dioxol-5-yl)thiourea]		
1000	O=C(Nc1ccc(Cl)c(C(F)(F)F)c1)Nc1ccc2ccccc2c1 [Example 11, 1-(4-Chloro-3-(trifluoromethyl)phenyl)-3-(naphthalen-2-yl)urea]		
1000	O=C(Nc1ccc(Cc2ccccc2)cc1)Nc1ccc(Cl)c(C(F)(F)F)c1 [Example 12, 1-(4-Benzylphenyl)-3-(4-chloro-3-(trifluoromethyl)phenyl)urea]		
1000	CCc1ccc(NC(=O)Nc2ccc(Cl)c(C(F)(F)F)c2)cc1 [Example 13, 1-(4-Chloro-3-(trifluoromethyl)phenyl)-3-(4-ethylphenyl)urea]		
1000	Cc1cc(NC(=O)Nc2ccc3c(c2)OC(F)(F)O3)ccc1Cl [Example 14, 1-(4-Chloro-3-methylphenyl)-3-(2,2-difluorobenzo[d][1,3]dioxol-5-yl)urea]		
1000	O=C(Nc1cccc(C(F)(F)F)c1)Nc1ccc2c(c1)OC(F)(F)O2 [Example 15, 1-(2,2-difluorobenzo[d][1,3]dioxol-5-yl)-3-(3-(trifluoromethyl)phenyl)urea]		
3000	O=C(Nc1ccccc1)Nc1ccc(Cl)c(C(F)(F)F)c1 [Example 16, 1-(4-Chloro-3-(trifluoromethyl)phenyl)-3-phenylurea]		
600	O=C(Nc1ccc(Oc2ccccc2)cc1)Nc1ccc(Cl)c(C(F)(F)F)c1 [Example 18, 1-(4-Chloro-3-(trifluoromethyl)phenyl)-3-(4-phenoxyphenyl)urea]		

Continued, molecule first:

Compound	IC50 [1] [nM]	viable persister cells (CFU/mL) vs DMSO control [2]	viable persister cells (CFU/mL) vs DMSO control [3]
COC(=O)c1cccc(Oc2ccc(NC(=O)Nc3ccc(Cl)c(C(F)(F)F)c3)cc2)c1 [Example 1, Methyl 3-(4-(3-(4-chloro-3-(trifluoromethyl)phenyl)ureido)phenoxy)benzoate]	500		
O=C(Nc1ccc(C(=O)c2ccccc2)cc1)Nc1ccc(Cl)c(C(F)(F)F)c1 [Example 2, 1-(4-Benzoylphenyl)-3-(4-chloro-3-(trifluoromethyl)phenyl)urea]	1000		
COc1cc(NC(=O)Nc2ccc(Cl)c(C(F)(F)F)c2)cc(OC)c1OC [Example 8, 1-(4-Chloro-3-(trifluoromethyl)phenyl)-3-(3,4,5-trimethoxyphenyl)urea]	30000		
CCCCOC(=O)c1ccc(NC(=O)Nc2ccc(Cl)c(C(F)(F)F)c2)cc1 [Example 17, Butyl 4-(3-(4-chloro-3-(trifluoromethyl)phenyl)ureido)benzoate]	600		
O=C(Nc1cccc(NC(=O)Nc2ccc(Cl)c(C(F)(F)F)c2)c1)Nc1ccc(Cl)c(C(F)(F)F)c1 [Example 19]	1000		
C#CCCC1(CCNC(=O)c2cc(Oc3ccc(NC(=O)Nc4ccc(Cl)c(C(F)(F)F)c4)cc3)ccn2)N=N1 [Probe compound, N-(2-(3-(but-3-yn-1-yl)-3H-diazirin-3-yl)ethyl)-4-(4-(3-(4-chloro-3-(trifluoromethyl)phenyl)ureido)phenoxy)picolinamide]	10000		
O=C(Nc1ccccc1)Nc1ccc2c(c1)OC(F)(F)O2 [Reference Example 1, 1-(2,2-Difluorobenzo[d][1,3]dioxol-5-yl)-3-phenylurea]	> 100000	no change	
Cc1ccc(NC(=O)Nc2ccc3c(c2)OC(F)(F)O3)cc1 [Reference Example 2, 1-(2,2-Difluorobenzo[d][1,3]dioxol-5-yl)-3-(p-tolyl)urea]	> 100000		
Cc1cc(C)c(NC(=O)Nc2ccc3c(c2)OC(F)(F)O3)c(C)c1 [Reference Example 3, 1-(2,2-Difluorobenzo[d][1,3]dioxol-5-yl)-3-mesitylurea]	> 100000		
CCCCCCCCNC(=O)Nc1ccc2c(c1)OC(F)(F)O2 [Reference Example 4, 1-(2,2-Difluorobenzo[d][1,3]dioxol-5-yl)-3-octylurea]	> 100000		
CNC(=O)c1cc(Oc2ccc(NC(=O)Nc3ccccc3)cc2)ccn1 [Reference Example 5, N-Methyl-4-(4-(3-phenylureido)phenoxy)picolinamide]	> 100000	no change	
O=C(O)c1cn(C2CC2)c2cc(N3CCNCC3)c(F)cc2c1=O [ciprofloxacin, reference compound]		no change	no change
